Data taken from patent US11230524B2, “Myocyte enhancer factor 2 (MEF2) modulators” (STANDARD LLC, priority 2017, dated 2022).
pIC50: −log10 of the molar value.

Target: MEF2D/HDAC4 protein-protein interactions (Homo sapiens (Human), UniProt Q14814)
Experiment: Mammalian two-hybrid assay, inhibition of MEF2D and HDAC4 protein interactions (luciferase reporter in HeLa cells)
Format: cell-based
Conditions: HeLa cells co-transfected with GAL4-MEF2D, HDAC4-VP16 and Gal4Luc; overnight treatment; luciferase normalized to Renilla
Description: Detection of MEF2D and HDAC4 interactions. In this mammalian two-hybrid assay, HDAC4 and MEF2D proteins were used. […] Human epithelial carcinoma cells (HeLa) were co-transfected with the two DNA constructs (GAL4-MEF2D and HDAC4-VP16) and a reporter plasmid (Gal4Luc). […] MEF2D and HDAC4 protein interactions were detected as a result of the GAL4-MEF2D and HDAC4-VP16 protein complex binding a DNA promoter on the reporter plasmid (Gal4Luc) and driving cellular expression of a luciferase gene. The measured luciferase protein signal was proportional to the amount of MEF2D and HDAC4 protein interactions occurring with the cell.
The HDAC4 fragment lacked the catalytic domain so that the deacetylase activity was excluded from the assay.
Detection of inhibition of MEF2D and HDAC4 interactions. Next, the assay was used to test whether the compounds could disrupt the interactions between MEF2D and HDAC4. After co-expressing the GAL4-MEF2D and HDAC4-VP16 DNA constructs and reporter plasmid, the HeLa cells were treated with a test compound (10 μM) overnight. Cells transfected with the positive control GAL4VP16 fusion construct and reporter plasmid were also treated with the test compound (10 μM) overnight. As another control, DMSO was added (but kept below 0.2% V/V) to cells transfected with the positive GAL4VP16 fusion construct or the GAL4-MEF2D and HDAC4-VP16 DNA constructs. A luciferase assay was performed as described above according to the manufacturer's protocol (Promega). The luciferase response was normalized against the Renilla Luciferase as an internal control.
The relative activity and IC50 calculations. […] The relative activity, I, was the ratio of former to later, i.e. X/Y, expressed in percentile. […] The IC50 was the concentration of the compounds when X/Y equals 50.

Chain of MEF2D/HDAC4 protein-protein interactions (Q14814 whole entry, species assumed): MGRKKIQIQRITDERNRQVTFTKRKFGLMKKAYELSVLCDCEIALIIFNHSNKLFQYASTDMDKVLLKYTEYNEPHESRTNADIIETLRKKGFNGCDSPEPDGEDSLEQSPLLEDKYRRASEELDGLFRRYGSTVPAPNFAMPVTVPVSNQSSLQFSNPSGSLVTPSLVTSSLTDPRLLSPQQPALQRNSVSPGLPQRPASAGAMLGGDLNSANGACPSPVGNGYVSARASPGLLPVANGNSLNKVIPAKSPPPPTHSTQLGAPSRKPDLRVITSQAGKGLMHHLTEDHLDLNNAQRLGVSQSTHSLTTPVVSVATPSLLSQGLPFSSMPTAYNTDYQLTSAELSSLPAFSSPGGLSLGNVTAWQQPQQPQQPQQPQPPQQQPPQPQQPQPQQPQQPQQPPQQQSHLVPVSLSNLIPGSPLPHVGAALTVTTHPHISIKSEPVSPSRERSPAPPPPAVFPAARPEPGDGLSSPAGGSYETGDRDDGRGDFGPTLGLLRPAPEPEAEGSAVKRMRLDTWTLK

| Compound | pIC50 |
| --- | --- |
| Nc1ccccc1NC(=O)/C=C/c1cccc(CNc2cccc(Br)c2)c1 [ST2] | 5.23 |
| COc1cccc(NCc2cccc(/C=C/C(=O)Nc3ccccc3N)c2)c1 [ST3] | 5.31 |
| CC(C)Oc1cccc(NCc2cccc(/C=C/C(=O)Nc3ccccc3N)c2)c1 [ST5] | 3.72 |
| Nc1ccccc1NC(=O)/C=C/c1cccc(CNc2cccc(N3CCCCC3)c2)c1 [ST6] | 5.61 |
| Nc1ccccc1NC(=O)/C=C/c1cccc(CNc2cccc(N3CCOCC3)c2)c1 [ST8] | 5.62 |
| CCN(CC)c1cccc(NCc2cccc(/C=C/C(=O)Nc3ccccc3N)c2)c1 [ST9] | 5.45 |
| Nc1ccccc1NC(=O)/C=C/c1cccc(CNc2cccc(N3CCCC3)c2)c1 [ST10] | 5.60 |
| Nc1ccccc1NC(=O)/C=C/c1ccc(F)c(CNc2ccccc2)c1 [ST11] | 4.74 |
| COc1cccc(NCc2ccc(F)c(/C=C/C(=O)Nc3ccccc3N)c2)c1 [ST12] | 5.47 |
| O=C(/C=C/c1cccc(CNc2ccccc2)c1)NO [ST15] | 6.04 |
| O=C(/C=C/c1cccc(CNc2cccc(OC3CC3)c2)c1)NO [ST16] | 6.42 |
| O=C(/C=C/c1cccc(CNc2ccc(F)cc2)c1)NO [ST17] | 6.00 |
| O=C(/C=C/c1cccc(CNc2cccc(F)c2)c1)NO [ST18] | 5.99 |
| COc1cccc(NCc2cccc(/C=C/C(=O)NO)c2)c1 [ST19] | 6.49 |
| CSc1cccc(NCc2cccc(/C=C/C(=O)NO)c2)c1 [ST20] | 6.49 |
| CCOc1cccc(NCc2cccc(/C=C/C(=O)NO)c2)c1 [ST21] | 6.46 |
| CCc1cccc(NCc2cccc(/C=C/C(=O)NO)c2)c1 [ST22] | 6.27 |
| N#Cc1cccc(NCc2cccc(/C=C/C(=O)NO)c2)c1 [ST23] | 6.38 |
| O=C(/C=C/c1cccc(CNc2ccc(F)c(F)c2)c1)NO [ST24] | 5.99 |
| O=C(/C=C/c1cccc(CNc2ccc(F)cc2F)c1)NO [ST25] | 6.02 |
| O=C(/C=C/c1cccc(CNc2ccc(Cl)cc2)c1)NO [ST26] | 6.10 |
| CC(C)Oc1cccc(NCc2cccc(/C=C/C(=O)NO)c2)c1 [ST27] | 6.46 |
| O=C(/C=C/c1cccc(CNc2cccc(OC3CCC3)c2)c1)NO [ST28] | 6.17 |
| O=C(/C=C/c1cccc(CNc2cccc(OC3CCCC3)c2)c1)NO [ST29] | 5.93 |
| CN(C)c1ccc(/C=C2C=C(/C=C/C(=O)NO)CCC/2)cc1 [ST30] | < 4.70 |

| Compound | pIC50 |
| --- | --- |
| O=C(/C=C/c1cccc(CNc2cccc(OC3COC3)c2)c1)NO [ST31] | 6.25 |
| O=C(/C=C/c1cccc(CNc2cccc(N3CCOCC3)c2)c1)NO [ST32] | 6.60 |
| CN(C)c1cccc(NCc2cccc(/C=C/C(=O)NO)c2)c1 [ST33] | 6.43 |
| CCCCc1cccc(NCc2cccc(/C=C/C(=O)NO)c2)c1 [ST34] | 5.69 |
| CCOc1cccc(NCC2C=C(/C=C/C(=O)NO)CCC2)c1 (centres unmarked) [ST35] | 5.33 |
| COc1ccc(NCC2C=C(/C=C/C(=O)NO)CCC2)cc1 (centres unmarked) [ST36] | 5.73 |
| O=C(/C=C/c1cccc(CNc2cccc(N3CCCC3)c2)c1)NO [ST37] | 6.23 |
| CCN(C)c1cccc(NCc2cccc(/C=C/C(=O)NO)c2)c1 [ST38] | 6.59 |
| O=C(/C=C/c1cccc(CNc2cccc(N3CCCCC3)c2)c1)NO [ST39] | 6.51 |
| O=C(/C=C/c1cccc(CNc2cccc(N3CCNCC3)c2)c1)NO [ST40] | 6.59 |
| CCN(CC)c1cccc(NCc2cccc(/C=C/C(=O)NO)c2)c1 [ST41] | 5.94 |
| CN(C)Cc1ccc(NCc2cccc(/C=C/C(=O)NO)c2)cc1 [ST42] | 7.15 |
| O=C(/C=C/c1cccc(CNc2cccc(C3COC3)c2)c1)NO [ST43] | 6.57 |
| COc1cccc(NCc2cc(F)cc(/C=C/C(=O)NO)c2)c1 [ST44] | 6.42 |
| O=C(/C=C/c1cccc(CNc2cccc(OCC(F)F)c2)c1)NO [ST45] | 6.25 |
| O=C(/C=C/c1cccc(CNc2cccc(OCC(F)(F)F)c2)c1)NO [ST46] | 6.17 |
| Nc1ccccc1NC(=O)/C=C/c1cccc(CNc2nccc(-c3cccnc3)n2)c1 [ST47] | 5.83 |
| Nc1ccccc1NC(=O)/C=C/c1cccc(Nc2nccc(-c3cccnc3)n2)c1 [ST48] | < 4.70 |
| Nc1ccccc1NC(=O)/C=C/c1cccc(CNc2nc3ccccc3s2)c1 [ST50] | 5.59 |
| COc1ccc(-c2csc(NCc3cccc(/C=C/C(=O)Nc4ccccc4N)c3)n2)cc1 [ST51] | < 4.70 |
| Nc1ccccc1NC(=O)/C=C/c1cccc(CNc2nc(-c3ccc(F)cc3)cs2)c1 [ST52] | < 4.70 |
| Nc1ccccc1NC(=O)/C=C/c1cccc(CNc2cccc3cccnc23)c1 [ST56] | 5.28 |
| Nc1ccccc1NC(=O)/C=C/c1cccc(C(=O)Nc2nc(-c3ccncc3)cs2)c1 [ST57] | < 4.70 |
| Nc1ccccc1NC(=O)/C=C/c1cccc(C(C(=O)Nc2ccccc2)C(=O)Nc2ccccc2)c1 [ST58] | 5.52 |
| Cc1cnc(NCc2cccc(/C=C/C(=O)Nc3ccccc3N)c2)s1 [ST59] | 5.50 |

| Compound | pIC50 |
| --- | --- |
| Cc1nnc(NCc2cccc(/C=C/C(=O)Nc3ccccc3N)c2)s1 [ST60] | 5.30 |
| Nc1ccccc1NC(=O)/C=C/c1cccc(CNc2nnc(C(F)(F)F)s2)c1 [ST61] | 5.10 |
| Nc1ccccc1NC(=O)/C=C/c1cccc(CNc2nc(C(F)(F)F)cs2)c1 [ST62] | 5.52 |
| Cc1nnc(NCc2cccc(/C=C/C(=O)Nc3ccccc3N)c2)o1 [ST65] | 5.27 |
| Cc1coc(NCc2cccc(/C=C/C(=O)Nc3ccccc3N)c2)n1 [ST67] | 5.51 |
| Nc1ccccc1NC(=O)/C=C/c1cccc(NC(=O)OCc2cccnc2)c1 [ST68] | 5.68 |
| O=C(/C=C/c1cccc(C(=O)Nc2nc(-c3ccncc3)cs2)c1)NO [ST69] | 6.01 |
| O=C(/C=C/c1cccc(CNc2nc(-c3ccncc3)cs2)c1)NO [ST70] | 6.85 |
| Cc1[nH]c2ccccc2c1CCNc1cccc(/C=C/C(=O)NO)c1 [ST71] | 6.57 |
| O=C(/C=C/c1cccc(CNc2cccnc2)c1)NO [ST72] | 5.81 |
| Cc1nnc(NCc2cccc(/C=C/C(=O)NO)c2)s1 [ST73] | 5.94 |
| O=C(/C=C/c1cccc(CNc2nnc(C(F)(F)F)s2)c1)NO [ST74] | 6.49 |
| O=C(/C=C/c1cccc(CNc2nc(C(F)(F)F)cs2)c1)NO [ST75] | 6.39 |
| Cc1nnc(NCc2cccc(/C=C/C(=O)NO)c2)o1 [ST76] | < 5.00 |
| Cc1coc(NCc2cccc(/C=C/C(=O)NO)c2)n1 [ST77] | 6.19 |
| Cc1csc(NCc2cccc(/C=C/C(=O)NO)c2)n1 [ST78] | < 4.70 |
| O=C(/C=C/c1cccc(CNc2nc(C(F)(F)F)co2)c1)NO [ST79] | 6.55 |
| CCOC(=O)NC(CCCCC(=O)Nc1ccccc1N)C(=O)Nc1cccc(Br)c1 (centres unmarked) [ST80] | 6.25 |
| CCOC(=O)NC(CCCCC(=O)Nc1ccccc1N)C(=O)Nc1cccc(C(C)(F)F)c1 (centres unmarked) [ST81] | 6.07 |
| CCOC(=O)NC(CCCCC(=O)Nc1ccccc1N)C(=O)Nc1cccc(SC)c1 (centres unmarked) [ST82] | 6.30 |
| CCOC(=O)NC(CCCCC(=O)Nc1ccccc1N)C(=O)Nc1cccc(SC(F)(F)F)c1 (centres unmarked) [ST84] | 6.03 |
| CCOC(=O)NC(CCCCC(=O)Nc1cccc(Br)c1)C(=O)Nc1ccccc1N (centres unmarked) [ST86] | < 4.70 |
| Nc1ccccc1NC(=O)CCCCC(N)C(=O)Nc1cccc(Br)c1 (centres unmarked) [ST87] | 5.51 |
| CCCCNC(CCCCC(=O)Nc1ccccc1N)C(=O)Nc1cccc(Br)c1 (centres unmarked) [ST88] | 5.14 |
